“Also recorded” adds a separate entry of the source. Ends that are not written are not given here.
Assays:
[1] = system: Anti-Factor Xa Activity of the Non-Heparin Glycosaminoglycan Orgaran ®; assay: Anti-Factor Xa assay: neutralization of Orgaran in citrate or plasma in vitro; format: biochemical, human
Procedure: The ability of peptides such as (ARKKAAKA)3VLVLVLVL (SEQ ID NO:5) to neutralize the anti-Factor Xa activity of UFH and LMWH in vitro was tested using the Stachrom Heparin kit (Diagnostica Stago), a standard hematology laboratory assay used to measure the anti-Factor Xa activity of heparin. The assay was performed using the low molecular weight heparin enoxaparin sodium (Lovenox®, Aventis Pharmaceuticals, Inc.), unfractionated heparin (UFH), or the non-heparin glycosaminoglycan danaparoid sodium (Orgaran®, Organon Inc., West Orange, N.J.) in 0.32% citrate or in plasma anticoagulated with 0.32% citrate. Enoxaparin is commonly used clinically as a low molecular weight heparin (LMWH). Danaparoid is commonly used clinically as a non-heparin glycosaminoglycan anticoagulant. Currently, the only FDA approved drug to target UFH is protamine, which is not effective in vivo against LMWH or a non-heparin glycosaminoglycan such as danaparoid. Buffer and ATIII are added to form the heparin/ATIII complex, peptide is added, then Factor Xa, reporter dye substrate for Factor Xa activity, and stop solution, and the dye concentration is read at 405 nm. The absorbance of the dye increases with increasing Factor Xa activity, and thus is inversely proportional to the heparin (anti-Factor Xa activity) concentration. Peptides were tested in plasma obtained from three volunteers (A, B, and C). Platelet function inhibitors PG12 and theophylline were added to the blood immediately upon collection. […]

platelets = assay: Platelet aggregation with aggregation-inducing agents; format: cell-based, human; conditions: 12 μg/ml; Lovenox 0.5 U/ml; collagen, ADP, ristocetin, epinephrine, SFFLRN, A23187
Procedure: Plasma from six volunteers was tested with various aggregation inducing agents, at several concentrations of each agent, and with six different peptides of the invention. The effect of heparin-binding peptides of the invention on platelet aggregation was determined using standard procedures as previously described. The six peptides which were synthesized and tested were: (ARKKAAKA)4 (SEQ ID NO:31), ARKKAAKA(A16)ARKKAAKA (SEQ ID NO:30), (ARKKAAKA)3ARKKCAKA (SEQ ID NO:33), (ARKKAAKA)3VLVLVLVL (SEQ ID NO:5), C(ARKKAAKA)4C (SEQ ID NO:34), and (AKKARA)6 (SEQ ID NO:32).
The aggregation-inducing agents tested were: collagen, adenosine diphosphate (ADP), ristocetin, epinephrine, the thrombin receptor peptide SFFLRN, and calcium ionophore A23187. Platelets were subjected to protamine, or to SEQ ID NOS:31, 33, 30, 5, 34, or 32 at 12 μg/ml, and Lovenox® at 0.5 U/ml. Platelet aggregation in response to agonists was monitored and percent aggregation was determined over a five minute interval.
The agonist was added after equilibration of the platelets for one minute.

[2] = Hemodynamic effects in rats after administration of the LMWH Lovenox; conditions: in the presence of LMWH Lovenox
Procedure: Next, experiments were performed in which the animals were treated with the peptides after the administration of the LMWH Lovenox®, as would happen in the clinical situation, because binding of peptides to LMWH would be expected to reduce the effects of the peptides on hemodynamic function.

[3] = system: anti-Factor Xa Activity of the Low Molecular Weight Heparin Lovenox ®; assay: Anti-Factor Xa assay (Stachrom Heparin kit): neutralization of Lovenox in citrate or plasma in vitro; format: biochemical, human; conditions: for Lovenox ® Neutralized: Lovenox 0.7 U/ml
Procedure: The ability of peptides such as (ARKKAAKA)3VLVLVLVL (SEQ ID NO:5) to neutralize the anti-Factor Xa activity of UFH and LMWH in vitro was tested using the Stachrom Heparin kit (Diagnostica Stago), a standard hematology laboratory assay used to measure the anti-Factor Xa activity of heparin. The assay was performed using the low molecular weight heparin enoxaparin sodium (Lovenox®, Aventis Pharmaceuticals, Inc.), unfractionated heparin (UFH), or the non-heparin glycosaminoglycan danaparoid sodium (Orgaran®, Organon Inc., West Orange, N.J.) in 0.32% citrate or in plasma anticoagulated with 0.32% citrate. Enoxaparin is commonly used clinically as a low molecular weight heparin (LMWH). Danaparoid is commonly used clinically as a non-heparin glycosaminoglycan anticoagulant. Currently, the only FDA approved drug to target UFH is protamine, which is not effective in vivo against LMWH or a non-heparin glycosaminoglycan such as danaparoid. Buffer and ATIII are added to form the heparin/ATIII complex, peptide is added, then Factor Xa, reporter dye substrate for Factor Xa activity, and stop solution, and the dye concentration is read at 405 nm. The absorbance of the dye increases with increasing Factor Xa activity, and thus is inversely proportional to the heparin (anti-Factor Xa activity) concentration. Peptides were tested in plasma obtained from three volunteers (A, B, and C). Platelet function inhibitors PG12 and theophylline were added to the blood immediately upon collection.
Results. […] (ARKKAAKA)3VLVLVLVL (SEQ ID NO:5) and VLVL(ARKKAAKA)3ARKKCAKA (SEQ ID NO:38) were able to neutralize about 0.4 U/ml anti-Factor Xa activity of LMWH at a concentration of 12 μg/ml, which would be an effective dose for patients. (AKKARA)6 (SEQ ID […]), (ARKKAAKA)4 (SEQ ID NO:31) and (ARKKAAKA)3ARKKCAKA […] 0.3-0.35 U/ml. In contrast, 12 μg protamine only neutralized about 0.25 U/ml of LMWH under these conditions.

## ARKKAAKAARKKAAKAARKKAAKAARKKAAKA [(ARKKAAKA)4]
[1]; 1 μg/ml Peptide, A Plasma
  Orgaran Neutralized: 0.026 ± 0.021 U/ml
[1]; 1 μg/ml Peptide, B Plasma
  Orgaran Neutralized: 0.025 ± 0.009 U/ml
[1]; 1 μg/ml Peptide, C Plasma
  Orgaran Neutralized: 0.020 ± 0.012 U/ml
[1]; 1 μg/ml Peptide, Citrate
  Orgaran Neutralized: 0.021 ± 0.022 U/ml
[1]; 6 μg/ml Peptide, A Plasma
  Orgaran Neutralized: 0.061 ± 0.006 U/ml
[1]; 6 μg/ml Peptide, B Plasma
  Orgaran Neutralized: 0.057 ± 0.022 U/ml
[1]; 6 μg/ml Peptide, C Plasma
  Orgaran Neutralized: 0.074 ± 0.056 U/ml
[1]; 6 μg/ml Peptide, Citrate
  Orgaran Neutralized: 0.172 ± 0.028 U/ml
[1]; 12 μg/ml Peptide, A Plasma
  Orgaran Neutralized: 0.082 ± 0.012 U/ml
[1]; 12 μg/ml Peptide, B Plasma
  Orgaran Neutralized: 0.110 ± 0.021 U/ml
[1]; 12 μg/ml Peptide, C Plasma
  Orgaran Neutralized: 0.116 ± 0.021 U/ml
[1]; 12 μg/ml Peptide, Citrate
  Orgaran Neutralized: 0.178 ± 0.021 U/ml
[1]; 60 μg/ml Peptide, A Plasma
  Orgaran Neutralized: 0.211 ± 0.029 U/ml
[1]; 60 μg/ml Peptide, B Plasma
  Orgaran Neutralized: 0.192 ± 0.009 U/ml
[1]; 60 μg/ml Peptide, C Plasma
  Orgaran Neutralized: 0.182 ± 0.006 U/ml
[1]; 60 μg/ml Peptide, Citrate
  Orgaran Neutralized: 0.298 ± 0.044 U/ml
[1]; 120 μg/ml Peptide, A Plasma
  Orgaran Neutralized: 0.286 ± 0.040 U/ml
[1]; 120 μg/ml Peptide, B Plasma
  Orgaran Neutralized: 0.302 ± 0.012 U/ml
[1]; 120 μg/ml Peptide, C Plasma
  Orgaran Neutralized: 0.299 ± 0.024 U/ml
[1]; 120 μg/ml Peptide, Citrate
  Orgaran Neutralized: 0.366 ± 0.019 U/ml
platelets
  effect on platelet aggregation: no significant inhibition or enhancement of aggregation
[2]
  effect on blood pressure and heart rate / toxicity: no significant effect on blood pressure and heart rate; also recorded: All four rats tested showed no response
[3]; 1 μg/ml Peptide, A Plasma
  Lovenox ® Neutralized: 0.020 ± 0.016 U/ml
[3]; 1 μg/ml Peptide, B Plasma
  Lovenox ® Neutralized: 0.031 ± 0.015 U/ml
[3]; 1 μg/ml Peptide, C Plasma
  Lovenox ® Neutralized: 0.059 ± 0.029 U/ml
[3]; 1 μg/ml Peptide, Citrate
  Lovenox ® Neutralized: 0.141 ± 0.051 U/ml
[3]; 6 μg/ml Peptide, A Plasma
  Lovenox ® Neutralized: 0.184 ± 0.038 U/ml
[3]; 6 μg/ml Peptide, B Plasma
  Lovenox ® Neutralized: 0.178 ± 0.022 U/ml
[3]; 6 μg/ml Peptide, C Plasma
  Lovenox ® Neutralized: 0.252 ± 0.024 U/ml
[3]; 6 μg/ml Peptide, Citrate
  Lovenox ® Neutralized: 0.376 ± 0.019 U/ml
[3]; 12 μg/ml Peptide, A Plasma
  Lovenox ® Neutralized: 0.287 ± 0.058 U/ml
[3]; 12 μg/ml Peptide, B Plasma
  Lovenox ® Neutralized: 0.328 ± 0.041 U/ml
[3]; 12 μg/ml Peptide, C Plasma
  Lovenox ® Neutralized: 0.325 ± 0.030 U/ml
[3]; 12 μg/ml Peptide, Citrate
  Lovenox ® Neutralized: 0.473 ± 0.039 U/ml
[3]; 60 μg/ml Peptide, A Plasma
  Lovenox ® Neutralized: 0.343 ± 0.090 U/ml
[3]; 60 μg/ml Peptide, B Plasma
  Lovenox ® Neutralized: 0.488 ± 0.012 U/ml
[3]; 60 μg/ml Peptide, C Plasma
  Lovenox ® Neutralized: 0.495 ± 0.032 U/ml
[3]; 60 μg/ml Peptide, Citrate
  Lovenox ® Neutralized: 0.515 ± 0.016 U/ml
[3]; 120 μg/ml Peptide, A Plasma
  Lovenox ® Neutralized: 0.601 ± 0.052 U/ml
[3]; 120 μg/ml Peptide, B Plasma
  Lovenox ® Neutralized: 0.541 ± 0.065 U/ml
[3]; 120 μg/ml Peptide, C Plasma
  Lovenox ® Neutralized: 0.570 ± 0.029 U/ml
[3]; 120 μg/ml Peptide, Citrate
  Lovenox ® Neutralized: 0.509 ± 0.079 U/ml
[3]; Table 2A
  anti-LMWH effect in citrate compared with plasma: greater anti-LMWH effect in citrate than in plasma
[3]; low concentrations, in the presence of plasma
  Lovenox/LMWH neutralization compared with protamine: more effective than protamine

## ARKKAAKAAAAAAAAAAAAAAAAAARKKAAKA [ARKKAAKA(A16)ARKKAAKA, reference compound]
platelets
  effect on platelet aggregation: no significant inhibition or enhancement of aggregation
[3]; 1 μg/ml Peptide, A Plasma
  Lovenox ® Neutralized: 0.010 ± 0.008 U/ml
[3]; 1 μg/ml Peptide, B Plasma
  Lovenox ® Neutralized: 0.027 ± 0.014 U/ml
[3]; 1 μg/ml Peptide, C Plasma
  Lovenox ® Neutralized: 0.0 U/ml
[3]; 1 μg/ml Peptide, Citrate
  Lovenox ® Neutralized: 0.020 ± 0.023 U/ml
[3]; 6 μg/ml Peptide, A Plasma
  Lovenox ® Neutralized: 0.018 ± 0.018 U/ml
[3]; 6 μg/ml Peptide, B Plasma
  Lovenox ® Neutralized: 0.042 ± 0.041 U/ml
[3]; 6 μg/ml Peptide, C Plasma
  Lovenox ® Neutralized: 0.0 U/ml
[3]; 6 μg/ml Peptide, Citrate
  Lovenox ® Neutralized: 0.013 ± 0.007 U/ml
[3]; 12 μg/ml Peptide, A Plasma
  Lovenox ® Neutralized: 0.025 ± 0.011 U/ml
[3]; 12 μg/ml Peptide, B Plasma
  Lovenox ® Neutralized: 0.042 ± 0.023 U/ml
[3]; 12 μg/ml Peptide, C Plasma
  Lovenox ® Neutralized: 0.008 ± 0.012 U/ml
[3]; 12 μg/ml Peptide, Citrate
  Lovenox ® Neutralized: 0.010 ± 0.007 U/ml
[3]; 60 μg/ml Peptide, A Plasma
  Lovenox ® Neutralized: 0.018 ± 0.020 U/ml
[3]; 60 μg/ml Peptide, B Plasma
  Lovenox ® Neutralized: 0.061 ± 0.067 U/ml
[3]; 60 μg/ml Peptide, C Plasma
  Lovenox ® Neutralized: 0.015 ± 0.012 U/ml
[3]; 60 μg/ml Peptide, Citrate
  Lovenox ® Neutralized: 0.017 ± 0.014 U/ml
[3]; 120 μg/ml Peptide, A Plasma
  Lovenox ® Neutralized: 0.043 ± 0.020 U/ml
[3]; 120 μg/ml Peptide, B Plasma
  Lovenox ® Neutralized: 0.092 ± 0.042 U/ml
[3]; 120 μg/ml Peptide, C Plasma
  Lovenox ® Neutralized: 0.003 ± 0.002 U/ml
[3]; 120 μg/ml Peptide, Citrate
  Lovenox ® Neutralized: 0.069 ± 0.035 U/ml
[3]; in both citrate and plasma
  effect in the anti-Factor Xa assay for Lovenox: minimal effects
